Source: article PMC8821551, “Binding of cationic analogues of α-MSH to lipopolysaccharide and disruption of the cytoplasmic membranes caused bactericidal action against Escherichia coli” (Scientific Reports, 2022)
Residues, ends and D or L forms follow the SMILES beside them.

Key:
[1] = system: dye-loaded E. coli cells; experiment: Viability of DiSC3(5) dye-loaded cells by plating; type: cell-based, Escherichia coli; conditions: dye-loaded cells 10^6, HEPES-glucose buffer, two different days
Procedure: The membrane depolarization of E. coli cells was determined using a potentiometric fluorescent probe DiSC3(5), as described elsewhere. Briefly, mid-log phase E. coli cells were diluted to 10^6 CFU/mL in the same HEPES-glucose buffer and were incubated with DiSC3(5) and EDTA at 0.4 µM and 0.2 mM concentrations, respectively, for 1 h in the dark at 37 °C, till the maximum uptake of the probe occurred. Increasing concentrations of the studied peptides from 1 µM to 10 µM were then added to these dye-loaded cells in a quartz cuvette, and the fluorescence intensity was measured on spectrofluorimeter (Shimadzu RF-5301 PC) set as excitation at 622 nm and emission at 670 nm. The increase in fluorescence intensity accounted for the dissipation of membrane potential caused due to peptide treatment. Cells treated with 10 µM melittin were used as a positive control. Simultaneously, the dye-loaded cells were plated onto LB agar to estimate bacterial cell death.
Figure S1: Survival of dye-loaded cells (10^6) treated with various concentrations of peptides that correspond to the inner membrane depolarization. The dye-loaded E. coli cells suspended in HEPES-glucose buffer ([…]) were incubated with different concentration of α-MSH and its analogues for 2 minutes and further diluted in the same buffer and plated on LB agar plates. The plates were further incubated at 37 °C for 16 h. Next day the colonies were counted.^1 The experiment was performed on two different days and the representative values (mean ± SE) are shown in graph. (⁎, P < 0.05; ⁎⁎, P < 0.01, compared to that of control at the same concentration).

[2] = system: E. coli cells; experiment: LPS competitive inhibition assay; type: cell-based, Escherichia coli; conditions: peptide fixed at 10 µM, free LPS beyond 128 µg/mL; 10^5 CFU/mL mid-log cells, 90 min, 37 °C; peptide without LPS = 100% mortality
Procedure: To determine whether LPS could influence the peptide’s antimicrobial activity, the potency of the most charged analogue, KKK-MSH, was evaluated against E. coli in the presence of LPS, using the protocol reported elsewhere. Peptide and LPS from E. coli […] (Sigma-Aldrich, India) in equal volume (50 µL) were incubated in a 96-well sterile plate at 37 °C for 1 h. After that, 100 μL of mid-log E. coli cells were added (at a final concentration of 10^5 CFU/mL) to the LPS-peptide mixture for 90 min at 37 °C. The peptide concentration was kept constant at 10 µM, and the concentration of LPS was varied from 2 to 1024 μg/mL. After incubation, 50 μL of the reaction mixture from each well was diluted with an appropriate amount of HEPES-glucose buffer, spread on LB agar plates, and kept at 37 °C for 16 h. Then on the next day, colonies were counted and compared with control (in the absence of LPS, cells treated with only peptide were considered 100% mortal). Mortality was calculated using the following formula: %survival=CFU/mLintreatedsample/CFU/mLinuntreatedsample×100Cellmortality(%)=100-%survival

[3] = system: LPS from E. coli O55:B5; experiment: LPS binding assay (BODIPY-TR-cadaverine displacement); parameters: species or system Escherichia coli; conditions: BC displacement, LPS 50 μg/mL, 5 µM BC, 50 mM Tris buffer pH 7.4, peptide 0.25 to 20 µM, Hill equation fit, mean Kd ± SD of two independent experiments, read-out: Kd (dissociation constant) with LPS
Procedure: The binding of α-MSH and its analogues to LPS was checked using BODIPY-TR-cadaverine (BC) as a fluorescent probe[24],[42]. BC fluorescence decreases when bound to cell-free LPS and increases when it is freely accessible in solution. LPS (50 μg/mL) from E. coli O55:B5 (Sigma-Aldrich, India) was incubated with 5 µM of BC in 50 mM Tris buffer (pH 7.4) for 4 h. Next, 800 µL of this LPS-BC mixture was added to varying concentrations (0.25 µM to 20 µM) of the peptides in a quartz cuvette, and the BC fluorescence was measured on a spectrofluorimeter (Shimadzu RF-5301 PC) with excitation at 580 nm and emission at 620 nm. Each experiment was done in duplicate independently. Increase in fluorescence intensities with increase in concentration of peptides were plotted and the dissociation constant (Kd) was calculated from each individual data set and is presented as mean value ± SD using Igor Pro 6.36 (Y = Bmax × Xˆh/(Kdˆh + Xˆh); where X: concentration of peptide (µM), Y: fluorescence intensity (a.u.), h: Hill slope)[43]. The molecular mass of LPS was taken as 20,000 Da as described elsewhere, and its concentration was calculated accordingly.
Table S1: The dissociation constant (Kd) of α-MSH and its analogues with LPS. […]

[4] = peptide 10 µM, 2 min of exposure

Row | SMILES | log reduction in cell viability of dye-loaded cells ([1]; peptide 5 µM, 2 min exposure) [log] | log reduction in cell viability of dye-loaded cells [1, 4] [log] | killing of E. coli cells in the presence of free LPS [2] | Kd [3] [µM]
1 | CSCC[C@H](NC(=O)[C@H](CCCCN)NC(=O)[C@H](Cc1ccc(O)cc1)NC(=O)[C@H](CCCCN)NC(C)=O)C(=O)N[C@@H](C)C(=O)N[C@@H](Cc1c[nH]cn1)C(=O)N[C@@H](Cc1ccccc1)C(=O)N[C@@H](CCCNC(=N)N)C(=O)N[C@@H](Cc1c[nH]c2ccccc12)C(=O)NCC(=O)N[C@@H](CCCCN)C(=O)N1CCC[C@H]1C(=O)N[C@H](C(N)=O)C(C)C [KKA-MSH] (Ac-KYKMAHFRWGKPV-NH2) | 1 | 1 |  | 
2 | CSCC[C@H](NC(=O)[C@H](CCCCN)NC(=O)[C@H](Cc1ccc(O)cc1)NC(=O)[C@H](CCCCN)NC(C)=O)C(=O)N[C@@H](CCCCN)C(=O)N[C@@H](Cc1c[nH]cn1)C(=O)N[C@@H](Cc1ccccc1)C(=O)N[C@@H](CCCNC(=N)N)C(=O)N[C@@H](Cc1c[nH]c2ccccc12)C(=O)NCC(=O)N[C@@H](CCCCN)C(=O)N1CCC[C@H]1C(=O)N[C@H](C(N)=O)C(C)C [KKK-MSH] (Ac-KYKMKHFRWGKPV-NH2) | 1.73 | 2.1 | less than 20% | 9.8 ± 6.3
